The values that follow come from the supplement of paper PMC11208160.

The nature of the data set: recombinant barcode read abundance after kanamycin selection (control-corrected) (log10(CPM+1)); higher = more efficient recombination; sequences stand for … in AGTGCAGAGAAAATCGGCCAGTTTTCTCTGCCTGCAGTCCGCATGCCGT…AGATTTATGCAGCGGACTGCCTTTCTCCCAAAGTGATAAACCGGACAGTATCATGGACCGGTTTTCCCGGTAATCCGTATTTGCAAGGTTGGTTTCACT; site = the 11-nt target. The method, boiled down:
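Each value is log10(CPM+1). It describes recombination efficiency, taken as averaged, control-corrected counts per million of barcodes at recombinant junctions. The pooled E. coli library paired targets with IS621 bridge RNA target-binding loops, was co-electroporated with a donor plasmid, and was plated twice on chloramphenicol/ampicillin LB agar (control) and twice on chloramphenicol/ampicillin/kanamycin containing 0.1 mM IPTG.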
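Also: IS621 recombinase and bridge RNA in Escherichia coli cells.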

As to “GTGTGTTCTTGGGTTCTAACCTGTTGCCA (site GTGTGTTCTTG)”, the “recombinant barcode read abundance (log10)” value was determined as 0.336.

In the case of “GTGTGTTCTTGGGTTCTAACCTGTTGCCA (site TTGTGTTCTTA)”, the “recombinant barcode read abundance (log10)” value was determined as 0.0943.

For “GTTACAACTTGGGTTCTAACCTGTTGCCT (site CTTACGACTAG)”, the “recombinant barcode read abundance (log10)” value was found to be 0.0197.

Take “GTTACAACTTGGGTTCTAACCTGTTGCCT (site GTTACAACTAG)”: the “recombinant barcode read abundance (log10)” value is 0.263.

Take “GTTACGGCTTGGGTTCTAACCTGTTGCCT (site GTTACGGCTAG)”: the “recombinant barcode read abundance (log10)” value is 0.0907.

Regarding “GTTACGGCTTGGGTTCTAACCTGTTGCCT (site GTTCCGGCTAG)”, the “recombinant barcode read abundance (log10)” value turned out to be 0.0623.

“GTTACGGCTTGGGTTCTAACCTGTTGCCT (site GTTGCGGCTAG)”: the “recombinant barcode read abundance (log10)” value was determined as 0.0497.

Take “GTTACGGCTTGGGTTCTAACCTGTTGCCT (site GTTTCGGCTAG)”: the “recombinant barcode read abundance (log10)” value was determined as 0.

With “GTTAGAGCTTGGGTTCTAACCTGTTGCCT (site GTTAGAGCTAG)”, the “recombinant barcode read abundance (log10)” value came to 1.32.

For “GTTAGAGCTTGGGTTCTAACCTGTTGCCT (site GTTCGAGCTAG)”, the “recombinant barcode read abundance (log10)” value was found to be 0.235.

For “GTTAGAGCTTGGGTTCTAACCTGTTGCCT (site GTTGGAGCTAG)”, the “recombinant barcode read abundance (log10)” value is 0.0737.

For the sequence “GTTAGAGCTTGGGTTCTAACCTGTTGCCT (site GTTTGAGCTAG)”, the “recombinant barcode read abundance (log10)” value amounted to 0.225.

For “GTTAGGCCTTGGGTTCTAACCTGTTGCCT (site GATAGGCCTAG)”, the “recombinant barcode read abundance (log10)” value was 0.0232.

On to “GTTAGGCCTTGGGTTCTAACCTGTTGCCT (site GTTAGGCCTAG)”, for which the “recombinant barcode read abundance (log10)” value was found to be 0.292.

Take “GTTCAACCTTGGGTTCTAACCTGTTGCCT (site GATCAACCTAG)”: the “recombinant barcode read abundance (log10)” value is 0.242.

For “GTTCAACCTTGGGTTCTAACCTGTTGCCT (site GCTCAACCTAG)”, the “recombinant barcode read abundance (log10)” value was determined as 0.154.

As for “GTTCAACCTTGGGTTCTAACCTGTTGCCT (site GGTCAACCTAG)”, the “recombinant barcode read abundance (log10)” value is 0.0287.

In the case of “GTTCAACCTTGGGTTCTAACCTGTTGCCT (site GTTCAACCTAG)”, the “recombinant barcode read abundance (log10)” value turned out to be 1.48.

In the case of “GTTCCTCCTTGGGTTCTAACCTGTTGCCT (site GTTCCTCCTAG)”, the “recombinant barcode read abundance (log10)” value came to 0.823.

Regarding “GTTCCTCCTTGGGTTCTAACCTGTTGCCT (site GTTCCTGCTAG)”, the “recombinant barcode read abundance (log10)” value was found to be 0.0108.

On to “GTTGAGTCTTGGGTTCTAACCTGTTGCGT (site CTTGAGCCTAC)”, for which the “recombinant barcode read abundance (log10)” value worked out at 0.0835.

“GTTGAGTCTTGGGTTCTAACCTGTTGCGT (site GTTGAGTCTAC)”: the “recombinant barcode read abundance (log10)” value turned out to be 1.87.

Consider “GTTTATACTTGGGTTCTAACCTGTTGCCT (site GTATATACTAG)”, for which the “recombinant barcode read abundance (log10)” value was determined as 0.0265.

Regarding “GTTTATACTTGGGTTCTAACCTGTTGCCT (site GTCTATACTAG)”, the “recombinant barcode read abundance (log10)” value was 0.091.

In the case of “GTTTATACTTGGGTTCTAACCTGTTGCCT (site GTGTATACTAG)”, the “recombinant barcode read abundance (log10)” value is 0.0593.

For the sequence “GTTTATACTTGGGTTCTAACCTGTTGCCT (site GTTTATACTAG)”, the “recombinant barcode read abundance (log10)” value was found to be 0.305.

In the case of “GTTTCGTCTTGGGTTCTAACCTGTTGCCT (site GTTTCGACTAG)”, the “recombinant barcode read abundance (log10)” value turned out to be 0.0118.

Turning to “GTTTCGTCTTGGGTTCTAACCTGTTGCCT (site GTTTCGTCTAG)”, the “recombinant barcode read abundance (log10)” value stood at 0.0924.

Consider “GTTTGACCTTGGGTTCTAACCTGTTGCGG (site GTTTGACCTCC)”, for which the “recombinant barcode read abundance (log10)” value stood at 1.47.

Turning to “GTTTGACCTTGGGTTCTAACCTGTTGCGG (site TAGCTGACTGG)”, the “recombinant barcode read abundance (log10)” value is 0.0274.

Regarding “GTTTGAGCTTGGGTTCTAACCTGTTGCCT (site GTTAGAGCTAG)”, the “recombinant barcode read abundance (log10)” value was 0.231.

For “GTTTGAGCTTGGGTTCTAACCTGTTGCCT (site GTTCGAGCTAG)”, the “recombinant barcode read abundance (log10)” value came to 0.261.

As to “GTTTGAGCTTGGGTTCTAACCTGTTGCCT (site GTTGGAGCTAG)”, the “recombinant barcode read abundance (log10)” value came out at 0.05.

Consider “GTTTGAGCTTGGGTTCTAACCTGTTGCCT (site GTTTGAGCTAG)”, for which the “recombinant barcode read abundance (log10)” value is 0.625.

Consider “TAAAAGCCTTGGGTTCTAACCTGTTGCCT (site TAAAAGACTAG)”, for which the “recombinant barcode read abundance (log10)” value was found to be 0.0773.

In the case of “TAAAAGCCTTGGGTTCTAACCTGTTGCCT (site TAAAAGCCTAG)”, the “recombinant barcode read abundance (log10)” value worked out at 0.42.

Consider “TAAAAGCCTTGGGTTCTAACCTGTTGCCT (site TAAAAGGCTAG)”, for which the “recombinant barcode read abundance (log10)” value came to 0.0822.

On to “TAAAAGCCTTGGGTTCTAACCTGTTGCCT (site TAAAAGTCTAG)”, for which the “recombinant barcode read abundance (log10)” value is 0.224.

With “TAAATCACTTGGGTTCTAACCTGTTGCCG (site ACGTATGCTAT)”, the “recombinant barcode read abundance (log10)” value was determined as 0.0241.

Take “TAAATCACTTGGGTTCTAACCTGTTGCCG (site TAAATCACTCG)”: the “recombinant barcode read abundance (log10)” value is 0.281.

Regarding “TAACGCTCTTGGGTTCTAACCTGTTGCCT (site AAACGCTCTAG)”, the “recombinant barcode read abundance (log10)” value was found to be 0.0696.

Turning to “TAACGCTCTTGGGTTCTAACCTGTTGCCT (site TAACGCTCTAG)”, the “recombinant barcode read abundance (log10)” value amounted to 1.2.

As to “TAACGGGCTTGGGTTCTAACCTGTTGCCG (site TAAAGGGCTAG)”, the “recombinant barcode read abundance (log10)” value turned out to be 0.0666.

As for “TAACGGGCTTGGGTTCTAACCTGTTGCCG (site TAACGGGCTCG)”, the “recombinant barcode read abundance (log10)” value is 0.529.

Regarding “TAACGTACTTGGGTTCTAACCTGTTGCTT (site TAAAGTACTAA)”, the “recombinant barcode read abundance (log10)” value stood at 0.137.

With “TAACGTACTTGGGTTCTAACCTGTTGCTT (site TAACGTACTAA)”, the “recombinant barcode read abundance (log10)” value came to 0.641.

In the case of “TAACGTACTTGGGTTCTAACCTGTTGCTT (site TAAGGTACTAA)”, the “recombinant barcode read abundance (log10)” value was 0.109.

In the case of “TAACGTACTTGGGTTCTAACCTGTTGCTT (site TAATGTACTAA)”, the “recombinant barcode read abundance (log10)” value amounted to 0.0185.

On to “TAACTTACTTGGGTTCTAACCTGTTGCAT (site TAACATACTAT)”, for which the “recombinant barcode read abundance (log10)” value stood at 0.179.

Regarding “TAACTTACTTGGGTTCTAACCTGTTGCAT (site TAACCTACTAT)”, the “recombinant barcode read abundance (log10)” value worked out at 0.0991.

As to “TAACTTACTTGGGTTCTAACCTGTTGCAT (site TAACGTACTAT)”, the “recombinant barcode read abundance (log10)” value worked out at 0.0567.

Consider “TAACTTACTTGGGTTCTAACCTGTTGCAT (site TAACTTACTAT)”, for which the “recombinant barcode read abundance (log10)” value came to 0.341.

As to “TAAGATGCTTGGGTTCTAACCTGTTGCGG (site GCGACATCTAG)”, the “recombinant barcode read abundance (log10)” value came to 0.0149.

Consider “TAAGATGCTTGGGTTCTAACCTGTTGCGG (site TAAGATGCTCC)”, for which the “recombinant barcode read abundance (log10)” value was determined as 1.78.

Take “TAAGGCCCTTGGGTTCTAACCTGTTGCTT (site TAAGGCCCTAA)”: the “recombinant barcode read abundance (log10)” value stood at 1.56.

As to “TAAGGCCCTTGGGTTCTAACCTGTTGCTT (site TCAGGCCCTAG)”, the “recombinant barcode read abundance (log10)” value was 0.33.

Turning to “TAAGTCCCTTGGGTTCTAACCTGTTGCCT (site AAAGTCCCTAG)”, the “recombinant barcode read abundance (log10)” value was 0.233.

For “TAAGTCCCTTGGGTTCTAACCTGTTGCCT (site CAAGTCCCTAG)”, the “recombinant barcode read abundance (log10)” value turned out to be 0.583.

For “TAAGTCCCTTGGGTTCTAACCTGTTGCCT (site GAAGTCCCTAG)”, the “recombinant barcode read abundance (log10)” value turned out to be 0.017.

Take “TAAGTCCCTTGGGTTCTAACCTGTTGCCT (site TAAGTCCCTAG)”: the “recombinant barcode read abundance (log10)” value is 1.9.

Regarding “TAATCGCCTTGGGTTCTAACCTGTTGCCT (site TAATCGACTAG)”, the “recombinant barcode read abundance (log10)” value came out at 0.122.

As for “TAATCGCCTTGGGTTCTAACCTGTTGCCT (site TAATCGCCTAG)”, the “recombinant barcode read abundance (log10)” value was 0.126.

On to “TAATCGCCTTGGGTTCTAACCTGTTGCCT (site TAATCGGCTAG)”, for which the “recombinant barcode read abundance (log10)” value stood at 0.102.

Take “TAATCGCCTTGGGTTCTAACCTGTTGCCT (site TAATCGTCTAG)”: the “recombinant barcode read abundance (log10)” value was determined as 0.

On to “TAATCTCCTTGGGTTCTAACCTGTTGCGT (site GGTGGCTCTTG)”, for which the “recombinant barcode read abundance (log10)” value amounted to 0.0934.

Consider “TAATCTCCTTGGGTTCTAACCTGTTGCGT (site TAATCTCCTAC)”, for which the “recombinant barcode read abundance (log10)” value is 0.167.

As to “TAATGACCTTGGGTTCTAACCTGTTGCTT (site TAATGACCTAA)”, the “recombinant barcode read abundance (log10)” value is 0.816.

Consider “TAATGACCTTGGGTTCTAACCTGTTGCTT (site TAATGACCTAT)”, for which the “recombinant barcode read abundance (log10)” value is 0.123.

Take “TAATGTACTTGGGTTCTAACCTGTTGCTT (site TAAAGTACTAA)”: the “recombinant barcode read abundance (log10)” value was determined as 0.0506.

Turning to “TAATGTACTTGGGTTCTAACCTGTTGCTT (site TAACGTACTAA)”, the “recombinant barcode read abundance (log10)” value worked out at 0.0626.

Regarding “TAATGTACTTGGGTTCTAACCTGTTGCTT (site TAAGGTACTAA)”, the “recombinant barcode read abundance (log10)” value is 0.195.

“TAATGTACTTGGGTTCTAACCTGTTGCTT (site TAATGTACTAA)”: the “recombinant barcode read abundance (log10)” value was found to be 0.0687.

On to “TACAACACTTGGGTTCTAACCTGTTGCGT (site GTAGGTCCTCG)”, for which the “recombinant barcode read abundance (log10)” value was 0.318.

Consider “TACAACACTTGGGTTCTAACCTGTTGCGT (site TACAACACTAC)”, for which the “recombinant barcode read abundance (log10)” value was 1.71.

For “TACAAGTCTTGGGTTCTAACCTGTTGCGG (site TACAAGGCTCC)”, the “recombinant barcode read abundance (log10)” value was 0.0774.

“TACAAGTCTTGGGTTCTAACCTGTTGCGG (site TACAAGTCTCC)”: the “recombinant barcode read abundance (log10)” value was 1.88.

Consider “TACACGACTTGGGTTCTAACCTGTTGCGG (site TACACGACTCC)”, for which the “recombinant barcode read abundance (log10)” value came to 1.51.
